From patent US11293019B2, “Chimeric genome engineering molecules and methods” (GFLAS Life Sciences, Inc., priority 2017, dated 2022)
Read-outs that look alike come from different tables or passages of the source.

Columns and labels:
PCR dsDNA product = test: SpCas9 activity with 1 mM ZnSO4 / Mg2+ deficiency at different pH; assay type: biochemical; conditions: 1 mM ZnSO4, range of pH values
Method: For DNA (50 ng) NbFTa13_4 PCR product, 3 μl (150 ng) was used; for SpCas9-BPNLS (3.3 μg) 1/10 dilution (333 ng), 1.5 μl (0.5 μg) was used; for gRNA (1.5 μg) (NbFTa13_3/4-2), 1/10 dilution (150 ng), 3.5 μg (500 ng) was used; for pH (+1 mM ZnSO4, 2× cutsmart), 10 μl was used; for DW, to 20 μl was used.
For PCR dsDNA product, 150 ng was used; for SpCas9:BPNLS, 1 μg was used; for gRNA, 500 ng was used; for pH titration (100 mM NaCal, 50 mM Tris-HCl+1 mM ZnSO4), 10 ul was used, for DW, up to 20 μl was used.
Activity of SpCas9 and SpCas9-mungbean nuclease chimeric polypeptide was tested in the presence of 1 mM ZnSO4 at a range of pHs.

[1] = tested on: HEK293 cells and plant protoplasts; test: Summary of knock-out / knock-in performance (HEK293 cells and plant protoplasts); assay type: cell-based; conditions: in vitro and in vivo HEK293 cells
Description: The apparent rates of mutations after the action of CRISPR genome editing tools are relatively low in vivo due to outperformance of error-free repair mechanisms. To enhance both the rate of indel mutation and HR recombination, genome editing tools were constructed by translational fusion of DNA modifying enzymes (DME), DNA binding protein (DBP), or terminal deoxyribonucleotidyl transferase (TdT) at either upstream or downstream of CRISPR genome editing enzymes. In one embodiment, a variant irreversibly deleted the DNA at the CRISPR enzyme-dependent double strand break sites in 5′->3′ direction, and the resulting modified ends with 3′-OH overhang can better serve HR repairs in presence of repair template. Disclosed herein are constructs that display functional enhancement of the CRISPR-Cas enzymes. […] Fifth, off-target effects in Cas9-RecJ embodied the similar efficiency to Cas9 off-targeting in whole genome sequencing and targeted deep sequencing. […] FIG. 74-FIG. 125 show said new genome editing fusion constructs, knock-out and knock-in efficiency and percent change in efficiency over a control.
The apparent rates of mutations after the action of CRISPR genome editing tools are relatively low in vivo due to outperformance of error-free repair mechanisms. […]

human DHCR7 = test: Genome editing after zinc sulfate treatment, HEK293, T7E1 assay; assay type: cell-based; conditions: for % indels: +RNP
Method: (§1) The concentrations of 80 mM 160 mM of zinc sulfate were treated in HEK293 with Cas9 variants. HEK293 cells were harvested at 12 h, 24 h, and 48 h after zinc sulfate treatment. In terms of RNP treatment, HEK293 cells were harvested at 24 h, 36 h, and 60 h.
as §1
Cell culture. HEK 293 cells were maintained in DMEM media with 10% Fetal bovine serum FBS and P/S, at 37° C. in CO2 incubator. 150,000 cells were transferred to a 24 well plate in […] of the growth medium a day before transfection.
Transfection. For Cas9 variants transfection to the cells, purified each Cas9 variant protein was added to up to […] of Opti-MEM serum reduced medium in a micro tube, followed by addition of 120 ng guide RNA. The molar ratio of the guide RNA to Cas9 protein was kept nearly at 1.2:1 ratio(1). The mixture, then, mixed well by gentle tapping and incubated for 10 min at RT. In a separate tube. […] of Lipofectamin 3000 transfection reagent was added to […] of Opti-MEM and […] of the diluted transfection reagent was added to the guide RNA and Cas9 protein mixture, followed by incubation for 15 min at RT and […] mixture was added to the cells.
Genomic DNA extraction. […] Briefly cells were washed with PBS once and treated with T.E., followed by incubation at 37, for 5 min. 1.2 ml of growth media were added to cells to harvest cell and then, spin downed at RT, 250×g, for 5 min.
Amplification of genomic loci of human DHCR7. For amplification of genomic loci of human DHCR7, two different PCR primer pairs were used. […] Genomic DNA was amplified using specific primers and cleaned up using Wizard® SV gel and PCR clean-Up system. 200 ng PCR cleaned-up amplified DNA was added in a PCR-tube, followed by addition of […] of NEB buffer 2 with up to 9 ml of distilled water (D/W). The mixture was then re-annealed in a PCR machine using following condition: 98° C. for 5 min for denaturation; cooling down to 85° C. at −2° C./sec, in turn, to 25° C. at −0.1/sec and kept at 4° C., in order to prevent denaturation of heteroduplex formation of the amplified DNA. […] of T7E1 endonuclease was added to the mixture and incubated at 37° C. for 60 min.
Image Analysis. For analysis of gene modification, 2% gel was used image was obtained with and Alphaimager 2200 image analysis software was used for analysis. % indel was computed with following equation: 1−((1-fraction cleaved) ½)(2).

[2] = tested on: PCR product (901 bp SpyCas9; 1,431 bp FnCpf1); test: Inactivation of SpyCas9 and FnCpf1 by stop solution / 1 mM ZnSO4, in vitro cleavage time course; assay type: biochemical

## O=S(=O)([O-])[O-].[Zn+2] [ZnSO4, zinc sulfate]
HEK293 cells; 0 to 120 mM zinc sulfate
  HEK293 cell survival: allowed HEK293 cell to survive
HEK293 cells; 160 mM and 200 mM zinc sulfate
  HEK293 cell survival: did not allow HEK293 live well without toxicity effect
PCR dsDNA product
  abolished Cas9 activity: up to 90%
[1]
  quenching of Cas9 activity: effectively quenched Cas9 activity
Human DHCR7; 80 ZnSO4 (mM) at 12 h, harvest 24 h
  % indels: 2.9%
Human DHCR7; 80 ZnSO4 (mM) at 12 h, harvest 60 h
  % indels: 5.4%
Human DHCR7; 160 ZnSO4 (mM) at 12 h, harvest 24 h
  % indels: 1.8%
Human DHCR7; 160 ZnSO4 (mM) at 12 h, harvest 36 h
  % indels: 2.7%
Human DHCR7; 160 ZnSO4 (mM) at 12 h, harvest 60 h
  % indels: 5.8%
Human DHCR7; 48 h hpt with RNP, 80 μM ZnSO4 at 24 hpt, direct
  modified dsDNA detected via T7E1 assay: 12.62%
Human DHCR7; 48 h hpt with RNP, 80 μM ZnSO4 at 24 hpt, media exchange
  modified dsDNA detected via T7E1 assay: 9.86%
Human DHCR7; 48 h hpt with RNP, 160 μM ZnSO4 at 24 hpt, direct
  modified dsDNA detected via T7E1 assay: 3.68%
Human DHCR7; 48 h hpt with RNP, 160 μM ZnSO4 at 24 hpt, media exchange
  modified dsDNA detected via T7E1 assay: 4.96%
Human DHCR7; 72 h hpt with RNP, 80 μM ZnSO4 at 24 hpt, direct
  modified dsDNA detected via T7E1 assay: 2.8%
Human DHCR7; 72 h hpt with RNP, 80 μM ZnSO4 at 24 hpt, media exchange
  modified dsDNA detected via T7E1 assay: 9.32%
Human DHCR7; 72 h hpt with RNP, 160 μM ZnSO4 at 24 hpt, direct
  modified dsDNA detected via T7E1 assay: 1.87%
Human DHCR7; 72 h hpt with RNP, 160 μM ZnSO4 at 24 hpt, media exchange
  modified dsDNA detected via T7E1 assay: 1.41%
Human DHCR7; HEK293 with Cas9 variants
  genome editing efficacy after zinc sulfate treatment: reduced
[2]
  uncut dsDNAs not digested any more after ZnSO4 treatment: 65%
